Like-named read-outs stand apart in the source and are kept apart here.
How the values were obtained:
[1] = test system: Aedes aegypti mosquitoes, pyrethroid-resistant Puerto Rico strain; assay: Vapor toxicity (24 h lethality under constant exposure in glass tubes), resistant strain; settings: LC50, with resistance ratio (PR)
[2] = test system: Aedes aegypti mosquitoes, insecticide-susceptible Orlando strain; settings: for 24h % mortality: Screened at μg/cm^2
[3] = test system: Aedes aegypti mosquitoes, pyrethroid-resistant Puerto Rico strain; assay: Vapor repellency glass tube assay (1 h), resistant strain; type: in vivo; settings: with resistance ratio (PR)
[4] = test system: Aedes aegypti mosquitoes, insecticide-susceptible Orlando strain; type: in vivo; settings: for 1 h Repellency EC50, μg/cm^2: (OR); for 1 h % Repellency, 100 μg/cm^2: screened at 100 μg/cm^2, strain not given
Outline: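 Sixteen female mosquitoes per glass tube facing netting-shielded filter paper treated with acetone solutions (30-0.01 μg/ml; screen at 100 μg/cm^2), no contact. Proportion on treated side scored up to 60 min, then flight-out checked 30 min; mortality after 24 hr constant exposure.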

[5] = test system: Aedes aegypti mosquitoes, insecticide-susceptible Orlando strain; assay: whole plant or invertebrate; settings: 24 h, read-out: 24 h % Mortality, 100 μg/cm^2
[6] = test system: Aedes aegypti strain Orlando (sensitive); assay: Topical toxicity (24 hour mortality), Ae. aegypti Orlando; type: in vivo; settings: topical application, 24 h mortality, female adults, susceptible Orlando strain
Outline: (§1)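 Females aged 3–6 days received 200 nL of compound in ethanol topically on the thorax, 10 per concentration per replicate, and were kept at 28° C with sugar water.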

[7] = test system: Anopheles gambiae Akron kdr (Akdr) strain, resistant to pyrethroids; assay: Topical toxicity (24 hour mortality), An. gambiae Akdr; type: in vivo; settings: for An. gambiae AKDR LD50: topical application, 24 h mortality, female adults, pyrethroid-resistant Akdr strain; for An. gambiae RR (resistance ratio): 24 h LD50 resistant strain (AKDR)/24 h LD50 susceptible strain (G3)
Outline: as §1

[8] = test system: Aedes aegypti and Anopheles gambiae female adults; assay: Analysis of topical toxicity (statements in words, species not given); type: in vivo; settings: structure-activity analysis of Table 4
Method: (§2) The Aedes aegypti strains Orlando (sensitive) as well as the Puerto Rico (PR, resistant to permethrin) were used. The Anopheles gambiae (G3 sensitive strain, as well as Akron kdr (Akdr) strain, resistant to pyrethroids were also assessed. The larvae were provided by the USDA, Gainesville Fl, and raised in a pan with tap water maintained at 28° C. Larvae were fed a ground liver and yeast mixture, and pupae were placed in emergence cages. Adults were held at 28° C. and provided with cotton balls soaked in 10% sugar water for rearing and for all bioassays.
Female adults from 3 to 6 days were used for the experiments. The drug was dissolved in ethanol and then applied with a micro-applicator on the thorax, between the legs: 200 nL of drug per female mosquito, with different concentrations of the drug; 10 mosquitos were treated together per concentration per replicate, and put together in a small container with free access to sweet water. Mortality, i.e. no visible movement, was assessed 24 hours after treatment. Every compound was assessed on at least 3 different cohorts of mosquitoes, and the LD50 values and slopes were determined with Probit analysis, corrected with Abbott's formula. […]

[9] = Mammalian toxicity, oral gavage; type: in vivo; settings: ICR, in vivo; Table 3A; oral gavage; preliminary mouse screening
Method: Mice ([…] strain ICR, body weight between 20 and 26 g, 35 days old+/−4 days), were force fed with compounds solubilized in olive oil to a volume of 10 μL per gram of mouse via 1 mL disposable syringes attached to 22 gauge metal canulas directly in the stomach following the Institutional Animal Care and Use Committee (IACUC) standard procedure. One hour after gavage, mice were returned to food and water access ad libitum. Dose tested ranged from 60 up to 600 mg/kg of mice, following the method recommended by the US EPA to reduce the number of mice used to determine the LD50 doses. Mice were monitored after drug administration during the first hour, and then every 4 hours up to 24 hours. The surviving mice were humanely sacrificed. Any mice displaying a high state of pain/distress would also be considered as not surviving the treatment and were sacrificed before the end of the investigation. The […] was determined using the AOT425StatPgm software; the study was registered and approved by IACUC under number 201810416.

[10] = test system: Anopheles gambiae G3 sensitive strain; assay: Topical toxicity (24 hour mortality), An. gambiae G3; type: in vivo; settings: topical application, 24 h mortality, female adults, susceptible strain G3
Outline: as §1

[11] = test system: Aedes aegypti strain Puerto Rico (PR, resistant to permethrin); assay: Topical toxicity (24 hour mortality), Ae. aegypti Puerto Rico; type: in vivo; settings: for Ae. aegypti RR (resistance ratio): 24 h LD50 resistant strain (PR)/24 h LD50 susceptible strain (OR); for Ae. aegypti PR LD50: topical application, 24 h mortality, female adults, permethrin-resistant Puerto Rico strain
Method: as §2
Female adults from 3 to 6 days were used for the experiments. The drug was dissolved in ethanol and then applied with a micro-applicator on the thorax, between the legs: 200 nL of drug per female mosquito, with different concentrations of the drug; 10 mosquitos were treated together per concentration per replicate, and put together in a small container with free access to sweet water. Mortality, i.e. no visible movement, was assessed 24 hours after treatment. Every compound was assessed on at least 3 different cohorts of mosquitoes, and the LD50 values and slopes were determined with Probit analysis, corrected with Abbott's formula.

| Structure (SMILES) | 24 h LC50, μg/cm^2 (RR) [1] [μg/cm^2] | 24 h LC50, μg/cm^2 ([2]; 24 h, LC50 (OR)) [μg/cm^2] | 1 h Repellency EC50, μg/cm^2 (RR) [3] [μg/cm^2] | 1 h Repellency EC50, μg/cm^2 [4] [μg/cm^2] | Ae. aegypti OR LD50 [6] [ng/mg] | An. gambiae AKDR LD50 [7] [ng/mg] | topical toxicity, statement in words (Example 10) [8] | also measured |
| --- | --- | --- | --- | --- | --- | --- | --- | --- |
| O=C(Nc1cc(F)c(F)c(F)c1)C(F)(F)C(F)(F)C(F)(F)F [MTFI-5-3A, 2,2,3,3,4,4,4-heptafluoro-N-(3,4,5-trifluorophenyl)butanamide] | 11 | 13 | 4.5 | 2.9 |  |  |  | repellency EC50, compound alone ([4]; alone, FIG. 3 / FIG. 4): 2.9 μg/cm^2; 1 h % Repellency, 100 μg/cm^2 [4]: 68%; mortality at 100 µg/cm2 [5]: 100% |
| CC1(C)[C@H](C=C(Cl)Cl)[C@H]1C(=O)OCc1c(F)c(F)cc(F)c1F [Transfluthrin, transfluthrin, reference compound] | 7.6 | 0.16 | 2.3 | 0.5 |  |  |  |  |
| CC(F)(F)C1(C(=O)Nc2cc(Cl)nc(Cl)c2)CC1 [GMR076] |  |  |  |  | 719 | >100 | reduced toxicity |  |
| CCCCCC(=O)Nc1cc(Cl)nc(C(F)(F)F)c1 [GMR067] |  |  |  |  | 3506 | 3506 | reduced activity |  |
| O=C(Nc1c(Cl)cccc1Cl)C(F)(F)C(F)(F)F [compound 53] |  |  |  |  |  |  |  | 24 h LC50, μg/cm^2 ([2]; Table 3A): 7.60 μg/cm^2; 24h % mortality ([2]; Table 3A): 100%; LD50 at 24 h [9]: > 2000 mg/kg; 1h EC50 (μg/cm^2) ([4]; Table 3A): 8.90 μg/cm^2 |
| O=C(Nc1cc(Cl)nc(Cl)c1)C(F)(F)C(F)(F)C(F)(F)F [GMR031] | 22 | 25 |  |  | 34 | 6.7 |  | An. gambiae G3 LD50 [10]: 8.0 ng/mg; An. gambiae RR (resistance ratio) [7]: 0.8; 1 h % Repellency, 100 μg/cm^2 [4]: 34%; Ae. aegypti RR (resistance ratio) [11]: 0.9; Ae. aegypti PR LD50 [11]: 31 ng/mg; mortality at 100 µg/cm2 [5]: 98% |
| O=C(Nc1c(Cl)cc(C(F)(F)F)cc1Cl)C(F)(F)C(F)(F)F [compound 41] |  |  |  |  |  |  |  | 24 h LC50, μg/cm^2 ([2]; Table 3A): 0.27 μg/cm^2; 24h % mortality ([2]; Table 3A): 100%; LD50 at 24 h [9]: 200 mg/kg; 1h EC50 (μg/cm^2) ([4]; Table 3A): 5.30 μg/cm^2; 1h % repellency ([4]; Table 3A, Screened at μg/cm^2): 66% |
| O=C(Nc1cc(C(F)(F)F)cc(C(F)(F)F)c1)C(F)F [MTFI-4-2B] |  |  | 24 | 15 |  |  |  | 1 h % Repellency, 100 μg/cm^2 [4]: 100%; mortality at 100 µg/cm2 [5]: 88% |
| O=C(Nc1cc(Cl)nc(Cl)c1)C(F)(F)C(F)(F)C(F)(F)C(F)(F)C(=O)Nc1cc(Cl)nc(Cl)c1 [GMR077] |  |  |  |  | 5373 | >100 | reduced activity |  |
| C/C=C/C1C(C(=O)OCc2c(F)c(F)c(COC)c(F)c2F)C1(C)C (centres unmarked) [Metofluthrin, metofluthrin, reference compound] | 43 | 0.84 | 12 | 0.3 |  |  |  |  |
| O=C(Nc1cc(Cl)nc(Cl)c1)C(F)(F)Sc1ccc(F)cc1 [GMR147] |  |  |  |  | 1983 |  | reduction in toxicity |  |
| O=C(Nc1cc(Cl)nc(Cl)c1)C(F)(C(F)(F)F)C(F)(F)F [GMR053] |  |  |  |  | 17 | 2.7 | retained high mortality | An. gambiae G3 LD50 [10]: 5.8 ng/mg; An. gambiae RR (resistance ratio) [7]: 0.5; Ae. aegypti RR (resistance ratio) [11]: 0.4; Ae. aegypti PR LD50 [11]: 7.10 ng/mg |

Source: patent publication US20230337677A1, “ARYL AND PYRIDYL AMIDE PESTICIDES AND COMPOSITIONS THEREOF” (University of Florida Research Foundation, Incorporated, priority 2019, published 2023)
